Experimental data published in US20260069693A1, “UROLITHINS AND T-CELL MEDIATED IMMUNE RESPONSE” (priority 2022, published 2026).

Key:
[1] = system: APTK-s.c. tumors; assay: subcutaneous APTK tumors, UA-supplemented diet; format: in vivo, C57BL/6 mice
Method: Tumors were minced and digested with Tumor & Tissue Dissociation Reagent (BD Horizon) for 30 min. The remaining organ pieces were filtered through a 70 μm cell strainer. Cells were then washed with PBS 1% BSA and 2 mM EDTA. Immune cells were enriched on a 30%/40%/75% Percoll gradient after a 1700 rpm 17 min centrifugation. Then, tumor immune filtrates or activated T cells were stained with Fixable Viability Dye-eF780 (65-0865-14; eBioscience), αCD45-FITC (30-F11; 11-0451-85; eBioscience), αCD11b-BV650 (M1/70; 56340; BD) α-CD11C-BV785 (HL3; 563735; BD), αLy6G-BV605 (53-6.7; 563005; BD), αLy6C-AF700 (HK1.4; 128024; Biolegend), αF4/80-PE (BM8; 12-4801-82, eBioscience), αPD-L1-PECy7 (MIH5; 25-5982-80, eBioscience); or with Fixable Viability Dye-eF780 (ebioscience), αCD45-BV786 (30-F11; 564225; BD), αCD4-BUV496 (GK1.5; 564667; BD), αCD8-BV605 (100744; Biolegend), αPD1-APC (J43; 17-9985-82; eBioscience), αTIM-3-PECy7 (RMT3-23; 119715; Biolegend), αCTLA4-PE (UC10-4B9; 106305; Biolegend) and αLag3-BV421 (C9B7W; 125221, Biolegend); or with Fixable Viability Dye-eF780 (eBioscience), αCD4-FITC (H129.19; 553650; BD), αCD8-APC (53-6.7; 17-0081-83; eBioscience), αCD44-AF400 (IM7; 103026; Biolegend), αCD62L-BV785 (MEL-14; 104440; Biolegend), αSca-1-PerCP-Cy5.5 (D7; 45-5981-82; eBioscience), αCD95-PE (Jo2; 554258; BD); or with Fixable Viability Dye-eF780 (eBioscience), αCD8-BV650 (53-6.7; 563234; BD), αCD4-BUV496 (GK1.5; 564667; BD), αCD127-APC (A7R34; 17-1271-82; eBioscience), αCD95-FITC (SA367H8; 152605; Biolegend), αCD44-AF400 (IM7; 103026; Biolegend), αCD62L-BV785 (MEL-14; 104440; Biolegend), αSca-1-PerCP-Cy5.5 (D7; 45-5981-82; eBioscience) followed by intracellular staining of αTCF1-PE (S33-966; 564217; BD), or PGC-1α (sc-518025; D-5; santa cruz), or αCyclinD1 (MA5-28534, DCS-6; Invitrogen) with transcription factor buffer set kit (BD Biosciences). To study cytokine expression, tumor immune infiltrates were stimulated ex vivo with 20 ng/ml PMA and 1 μg/ml Ionomycin (Sigma) for 3 h in T cell activation medium with Brefeldin A (Biolegend).

[2] = system: Nalm-6 cells; assay: CD19-CAR T cell killing assay; format: cell-based, human; settings: 24 h co-culture, CAR T cells generated with UA vs DMSO
Method: The cytotoxic activity of CD19-CAR T cells generated in presence or absence of UA was determined by CD19-positive Nalm-6 cell killing. Three days post transduction, CAR expression was determined and normalized to equal CAR T cell levels. Cells were washed twice and 0.5×10^4 CAR T cells were seeded into NutriT medium without cytokines, UA or DMSO. Nalm-6 cells were labeled using CellTrace™ Violet (CTV; Thermo Fisher Scientific, C34557) following manufacturer's instructions and 1×10^4 labeled Nalm-6 cells were added to the CAR T cells (0.5:1 effector to target ratio). The amount of dead target cells was determined via flow cytometry 24 h after start of killing.

[3] = system: FoxP3+ T regulatory cells; settings: cited from earlier work
[4] = restimulated with PMA/ionomycin ex vivo

With `O=c1oc2cc(O)ccc2c2ccc(O)cc12` [UA, Urolithin A] the “mitochondrial content in TIL of APTK tumors” value ([1]; CD8+ TIL, UA vs control diet) was “increased”, the “CD4+ TSCM in APTK-induced tumors” value ([1]; UA-containing vs control diet) was “no change” and the “TCF1 expression in tumor infiltrating CD8+ T cells” value ([1]; UA-containing vs control diet) was “increased expression”. For the same compound, the “dendritic cells (DCS), TAMs, or MDSC subsets in TME” value ([1]; UA-containing vs control diet) was “no change”, the “CD8+CD44loCD62LhiSca1hi T cells in APTK-induced tumors” value ([1]; UA-containing vs control diet, CD8+ TIL) was “marked increase” and the “exhaustion marker CTLA-4 in CD8+ T cells” value ([1]; UA-fed mice, CD8+ TIL) was “reduction”. The “exhaustion marker PD-1 in CD8+ T cells” value ([1]; UA-fed mice, CD8+ TIL) was “reduction”, the “exhaustion marker Tim3 in CD8+ T cells” value ([1]; UA-fed mice, CD8+ TIL) was “reduction” and the “CD8+ T cell infiltration in tumors” value ([1]; UA-supplemented diet vs control food) was “enhanced”. The “induction of IFNg in tumor infiltrating CD8+ T cells” value [1, 4] was “stronger induction”, the “induction of TNFa in tumor infiltrating CD8+ T cells” value [1, 4] was “stronger induction” and the “CD19 CAR-T cell mediated killing of NALM-6 leukemia cells” value [2] was “did not have a negative impact”. The “FoxP3+ T regulatory cells” value [3] was “expanding”.
